Assay results published in patent US9745283B2, “Uracil derivatives as AXL and c-MET kinase inhibitors” (priority 2011, dated 2017).

Legend:
[1] = molecular target: recombinant human baculovirus-expressed AXL (Homo sapiens (Human), UniProt P30530); test: AXL Kinase Assay (HTRF KinEASE); format: biochemical; settings: average of two or more determinations
[2] = molecular target: recombinant human baculovirus-expressed cMET (Homo sapiens (Human), UniProt P08581); test: C-MET Kinase Assay (HTRF KinEASE); format: biochemical; settings: average of two or more determinations; read-out: c-MET IC50
In short: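 HTRF KinEASE format with recombinant human baculovirus-expressed cMET at 8 ng/mL, biotinylated peptide at 0.1 μM and ATP at 0.02 μM. IC50 came from percent control activity versus log concentration, fitted by nonlinear regression to a variable-slope sigmoidal equation with bottom fixed at 0 and top at 100.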

SMILES | IC50 [1] [nM] | IC50 [2] [nM]
COc1cc2nccc(Oc3ccc(NC(=O)c4nn(CC(C)=O)c(=O)n(-c5ccc(F)cc5)c4=O)cc3F)c2cc1OC [Example 112, 4-(4-Fluorophenyl)-3,5-dioxo-2-(2-oxo-propyl)-2,3,4,5-tetrahydro-[1,2,4]triazine-6-carboxylic acid [4-(6,7-dimethoxyquinolin-4-yloxy)-3-fluorophenyl]-amide] | < 10 | 10 to 100
COc1cc2nccc(Oc3ccc(NC(=O)c4cn(CCC5OCCO5)c(=O)n(-c5ccc(F)cc5)c4=O)cc3F)c2cc1OC [Example 65, 1-[2-(1,3-Dioxolan-2-yl-ethyl)]-3-(4-fluoro-phenyl)-2,4-dioxo-1,2,3,4-tetrahydro-pyrimidine-5-carboxylic acid [4-(6,7-dimethoxy-quinolin-4-yloxy)-3-fluoro-phenyl]-amide] | < 10 | 10 to 100
CC(C)n1nc(C(=O)Nc2ccc(Oc3ccnc4cc5c(cc34)OCCO5)c(F)c2)c(=O)n(-c2ccc(F)cc2)c1=O [Example 106, 4-(4-Fluorophenyl)-2-isopropyl-3,5-dioxo-2,3,4,5-tetrahydro-[1,2,4]triazine-6-carboxylic acid [4-(2,3-dihydro-[1,4]dioxino[2,3-g]quinolin-9-yloxy)-3-fluorophenyl]-amide] | < 10 | 10 to 100
COc1cc2nccc(Oc3ccc(NC(=O)c4nn(C)c(=O)n(CC(C)C)c4=O)cc3F)c2cc1OC [Example 127, 4-Isobutyl-2-methyl-3,5-dioxo-2,3,4,5-tetrahydro-[1,2,4]triazine-6-carboxylic acid [4-(6,7-dimethoxy-quinolin-4-yloxy)-3-fluoro-phenyl]-amide] | < 10 | 10 to 100

Now from value to compound:

IC50 [1] [nM] | IC50 [2] [nM] | SMILES
< 10 | < 10 | COc1cc2nccc(Oc3ccc(NC(=O)c4cn(CCN5CCOCC5)c(=O)n(-c5ccc(F)cc5)c4=O)cc3F)c2cc1OC [Example 16, 3-(4-Fluorophenyl)-1-(2-morpholin-4-yl-ethyl)-2,4-dioxo-1,2,3,4-tetrahydropyrimidine-5-carboxylic acid [4-(6,7-dimethoxyquinolin-4-yloxy)-3-fluorophenyl]-amide]
< 10 | 10 to 100 | COc1cc2nccc(Oc3ccc(NC(=O)c4cn(C(C)C)c(=O)n(-c5ccccc5)c4=O)cc3F)c2cc1OC [Example 101, 1-Isopropyl-2,4-dioxo-3-phenyl-1,2,3,4-tetrahydro-pyrimidine-5-carboxylic acid [4-(6,7-dimethoxy-quinolin-4-yloxy)-3-fluoro-phenyl]-amide]
< 10 | 10 to 100 | COc1cc2nccc(Cc3ccc(NC(=O)c4cn(C)c(=O)n(-c5ccc(F)cc5)c4=O)cc3F)c2cc1OC [Example 58, 3-(4-fluoro-phenyl)-1-methyl-2,4-dioxo-1,2,3,4-tetrahydro-pyrimidine-5-carboxylic acid [4-(6,7-dimethoxy-quinolin-4-ylmethyl)-3-fluoro-phenyl]-amide]
< 10 | 10 to 100 | COc1cc2nccc(Oc3ccc(NC(=O)c4cn(CC(=O)N(C)C)c(=O)n(-c5ccc(F)cc5)c4=O)cc3F)c2cc1OC [Example 83, 1-Dimethylcarbamoylmethyl-3-(4-fluorophenyl)-2,4-dioxo-1,2,3,4-tetrahydro-pyrimidine-5-carboxylic acid [4-(6,7-dimethoxy-quinolin-4-yloxy)-3-fluorophenyl]-amide]
< 10 | 10 to 100 | COc1cc2nccc(Oc3ccc(NC(=O)c4cn(C5CCOCC5)c(=O)n(-c5ccc(F)cc5)c4=O)cc3F)c2cc1OC [Example 30, 3-(4-Fluorophenyl)-2,4-dioxo-1-(tetrahydropyran-4-yl)-1,2,3,4-tetrahydropyrimidine-5-carboxylic acid [4-(6,7-dimethoxyquinolin-4-yloxy)-3-fluorophenyl]-amide]
